Test results reported in ChEMBL document CHEMBL5325505, “Discovery of chiral 1,4-diarylazetidin-2-one-based hydroxamic acid derivatives as novel tubulin polymerization inhibitors with histone deacetylase inhibitory activity” (Bioorg Med Chem, 2023).

Experiments:
A549 = assay: Antiproliferative activity against human A549 cells incubated for 48 hrs by MTT assay; assay type: functional, cell-based; conditions: A549, 48 h
[1] = molecular target: T1, Protein deacetylase HDAC6 (Homo sapiens, UniProt Q9UBN7); assay: Inhibition of HDAC6 (unknown origin)
T1 sequence (Q9UBN7 whole entry): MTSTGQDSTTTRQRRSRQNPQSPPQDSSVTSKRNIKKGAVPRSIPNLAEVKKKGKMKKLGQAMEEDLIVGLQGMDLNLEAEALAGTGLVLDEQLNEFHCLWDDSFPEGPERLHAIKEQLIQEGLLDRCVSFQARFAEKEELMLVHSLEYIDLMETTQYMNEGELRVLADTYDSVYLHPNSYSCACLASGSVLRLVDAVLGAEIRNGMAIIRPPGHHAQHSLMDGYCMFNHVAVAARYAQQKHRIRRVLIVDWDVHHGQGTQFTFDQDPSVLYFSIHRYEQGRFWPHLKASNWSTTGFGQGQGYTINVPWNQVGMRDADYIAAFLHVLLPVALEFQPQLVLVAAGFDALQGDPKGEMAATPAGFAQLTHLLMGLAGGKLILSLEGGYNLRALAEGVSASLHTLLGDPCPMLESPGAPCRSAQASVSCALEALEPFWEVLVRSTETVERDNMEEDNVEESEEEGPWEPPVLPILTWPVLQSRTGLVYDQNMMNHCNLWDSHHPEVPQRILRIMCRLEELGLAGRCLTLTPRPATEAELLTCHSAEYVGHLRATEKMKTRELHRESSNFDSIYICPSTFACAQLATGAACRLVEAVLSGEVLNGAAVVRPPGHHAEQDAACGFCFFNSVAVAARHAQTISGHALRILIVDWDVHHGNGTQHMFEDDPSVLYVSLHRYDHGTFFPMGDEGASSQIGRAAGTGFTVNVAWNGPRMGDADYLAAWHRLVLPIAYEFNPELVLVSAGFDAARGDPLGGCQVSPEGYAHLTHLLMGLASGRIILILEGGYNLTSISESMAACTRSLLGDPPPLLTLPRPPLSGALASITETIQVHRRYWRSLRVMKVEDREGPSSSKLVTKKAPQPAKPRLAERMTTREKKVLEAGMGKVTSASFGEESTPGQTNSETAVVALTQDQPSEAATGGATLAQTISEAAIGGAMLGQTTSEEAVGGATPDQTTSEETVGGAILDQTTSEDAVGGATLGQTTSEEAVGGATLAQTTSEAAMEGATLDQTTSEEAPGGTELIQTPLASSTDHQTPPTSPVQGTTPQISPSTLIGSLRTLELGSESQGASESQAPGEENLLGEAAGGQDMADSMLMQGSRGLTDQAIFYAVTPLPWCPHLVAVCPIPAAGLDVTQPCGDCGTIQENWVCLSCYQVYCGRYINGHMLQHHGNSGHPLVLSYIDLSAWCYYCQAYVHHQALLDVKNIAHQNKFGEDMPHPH

BE(2)-C [2] = assay: Induction of cell cycle arrest in human BE2C cells assessed as accumulation at G2/M phase incubated for 24 hrs by RNase/PI staining based flow cytometry; assay type: functional
BE(2)-C [3] = assay: Induction of apoptosis in human BE2C cells assessed as viable cells at 25 nM incubated for 48 hrs by annexin V-FITC/PI staining based flow cytometry (reference value: 82.16 %); assay type: functional; conditions: read-out: Activity
BE(2)-C [4] = assay: Induction of apoptosis in human BE2C cells assessed as necrotic cells at 25 nM incubated for 48 hrs by annexin V-FITC/PI staining based flow cytometry (reference value: 3.57 %); assay type: functional
BE(2)-C [5] = assay: Induction of apoptosis in human BE2C cells assessed as necrotic cells at 50 nM incubated for 48 hrs by annexin V-FITC/PI staining based flow cytometry (reference value: 3.57 %); assay type: functional
BE(2)-C [6] = assay: Induction of apoptosis in human BE2C cells assessed as viable cells at 100 nM incubated for 48 hrs by annexin V-FITC/PI staining based flow cytometry (reference value: 82.16 %); assay type: functional; conditions: read-out: Activity
BE(2)-C [7] = assay: Induction of apoptosis in human BE2C cells assessed as early apoptotic cells at 100 nM incubated for 48 hrs by annexin V-FITC/PI staining based flow cytometry (reference value: 4.28 %); assay type: functional
BE(2)-C [8] = assay: Induction of apoptosis in human BE2C cells assessed as necrotic cells at 100 nM incubated for 48 hrs by annexin V-FITC/PI staining based flow cytometry (reference value: 3.57 %); assay type: functional
[9] = Metabolic stability in human liver microsomes assessed as compound remaining incubated for 60 mins; assay type: ADME, Microsome; conditions: liver microsomes, read-out: Stability
BE(2)-C [10] = assay: Antitumor activity against human BE2C cells xenografted in nude mouse assessed as tumor growth inhibition at 25 mg/kg, ip treated for every 3 days relative to control; assay type: functional; conditions: 72 h, time 3 day, read-out: TGI

With `COc1ccc([C@H]2[C@H](COC(=O)c3ccc(C(=O)NO)cc3)C(=O)N2c2cc(OC)c(OC)c(OC)c2)cc1O` the IC50 (A549) was 53 nM, the IC50 [1] was 1040 nM and the Activity (BE(2)-C [2]) was “Dose-Dependent Effect”. The viability at 0.025 µM (BE(2)-C [3]) was 62.1%, the Activity (BE(2)-C [4]) was 7.06% and the Activity (BE(2)-C [5]) was 8.53%. For the same molecule, the viability at 0.1 µM (BE(2)-C [6]) was 29.2%, the Activity (BE(2)-C [7]) was 17.27% and the Activity (BE(2)-C [8]) was 9.54%. The remaining at 1 h [9] was 55.3% and the inhibition in vivo at 25 mg/kg (BE(2)-C [10]) was 67%.
